# Measured values as given in patent US4009273A, “Substituted 10,11-dihydro-5,10-imino-[5H] dibenzo (a,d)-cycloheptene” (priority 1972, dated 1977).
# What was measured:
# Acute toxicity = conditions: mouse, in vivo, ip, Swiss mice, observed for a week
# Experimental: The acute toxicity was determined on groups of Swiss mice weighing 18 to 22 g and the test products were administered intraperitoneally in increasing doses and the animals were kept under observation for a week.
# amytal sleeping time = assay: Potentialization of sleeping time (amytal); assay type: in vivo, mice (female); conditions: 1 h before 80 mg/kg amytal i.v.
# Experimental: The potentialization of sleeping time was determined with a test using amytal [5-ethyl-5-isoamyl-barbituric acid] in which groups of female mice weighing between 18 and 22 g were kept at 25° C for the duration of the test. The test products were administered intraperitoneally at different doses one hour before intraveinous injection of 80 mg/kg of amytal and the sleeping time was noted which is the time while the reflux of straightening in the mice was negative.
# [1] = test system: pentamethylenetetrazol convulsions; assay: Anticonvulsant effect (pentamethylenetetrazol perfusion); assay type: in vivo, mice (female); conditions: 1 h before perfusion
# Experimental: The anticonvulsant activity of the compounds was determined on groups of 10 female mice with intraperitoneal administration of the test compounds in acid solution at different doses and the control group received only the solvent. One hour after the injection, the mice were perfused with a solution of pentamethylenetetrazol in physiological serum at a concentration of 3 mg/ml. The perfusion was intraveinous at a rate of 1 ml per minute and in the course of the perfusion, the progress of introxication was characterized by the following 3 criteria:
# a. Threshold of convulsant effect (myoclonia of the ears)
# b. Crisis of clonic convulsions
# c. Tonic convulsion with apnea and generally followed by death.
# amphetamine deaths = assay: Amphetamine toxicity in mice; assay type: in vivo, mice (female); conditions: 1 h before 15 mg/kg amphetamine, mortality at 4 h
# Experimental: The test was effected on group of 10 female mice weighing between 18 and 22 g kept at 27° C for the duration of the test. The test products were intraperitoneally administered in different doses in a volume of 0.01 ml /g of mouse. One hour later, the mice received an injection of 15 mg/kg of a solution of 1.5 mg of amphetamine per ml of physiological serum. The mortality 4 hours after the amphetamine injection was determined and the results were expressed as a ratio of number of dead animals to number of starting animals.
smiles,measurement,setting,value
"C[N+]1(C)C2Cc3ccccc3C1c1ccccc12 (stereo not drawn) [Example 16, 12-methyl-10,11-dihydro-5,10-imino-[5H]-dibenzo (a,d) cycloheptene dl iodomethylate]",LD50 at 168 h,Acute toxicity,> 200 mg/kg
"CCOC(=O)N1C2Cc3ccccc3C1c1ccccc12 (stereo not drawn) [Example 17, 12-carbethoxy-10,11-dihydro-5,10imino-[5H]-dibenzo (a,d) cycloheptene dl]",LD50 at 168 h,Acute toxicity,1000 mg/kg
"C=CCN1C2Cc3ccccc3C1c1ccccc12 (stereo not drawn) [Example 19, 12-allyl-10,11-dihydro-5,10-imino-[5H]-dibenzo (a,d) cyclo-heptene dl]",average sleeping time,amytal sleeping time; 2 mg/Kg i.p.,37.1 min
same,average sleeping time,amytal sleeping time; 5 mg/Kg i.p.,65.1 min
same,average sleeping time,amytal sleeping time; 10 mg/Kg i.p.,71.7 min
same,average sleeping time,amytal sleeping time; 20 mg/Kg i.p.,> 120 min
same,LD50 at 168 h,Acute toxicity,350 mg/kg
same,"Dose of pentamethylenetetrazol, Clonic Crisis",[1]; 2 mg/Kg i.p.,50.0 mg/kg
same,"Dose of pentamethylenetetrazol, Myoclonia",[1]; 2 mg/Kg i.p.,44.8 mg/kg
same,"Dose of pentamethylenetetrazol, Tonic Crisis",[1]; 2 mg/Kg i.p.,150.8 mg/kg
same,"Dose of pentamethylenetetrazol, Clonic Crisis",[1]; 5 mg/Kg i.p.,49.8 mg/kg
same,"Dose of pentamethylenetetrazol, Myoclonia",[1]; 5 mg/Kg i.p.,44.5 mg/kg
same,"Dose of pentamethylenetetrazol, Tonic Crisis",[1]; 5 mg/Kg i.p.,136.0 mg/kg
same,"Dose of pentamethylenetetrazol, Clonic Crisis",[1]; 10 mg/Kg i.p.,52.4 mg/kg
same,"Dose of pentamethylenetetrazol, Myoclonia",[1]; 10 mg/Kg i.p.,47.4 mg/kg
same,"Dose of pentamethylenetetrazol, Tonic Crisis",[1]; 10 mg/Kg i.p.,241.9 mg/kg
same,"Dose of pentamethylenetetrazol, Clonic Crisis",[1]; 20 mg/Kg i.p.,54.7 mg/kg
same,"Dose of pentamethylenetetrazol, Myoclonia",[1]; 20 mg/Kg i.p.,49.2 mg/kg
same,"Dose of pentamethylenetetrazol, Tonic Crisis",[1]; 20 mg/Kg i.p.,271.8 mg/kg
"C#CCN1C2Cc3ccccc3C1c1ccccc12 (stereo not drawn) [Example 20, 12-propargyl-10,11-dihydro-5,10-imino-[5H]-dibenzo (a,d) cycloheptene dl]",average sleeping time,amytal sleeping time; 0.5 mg/Kg i.p.,41.8 min
same,average sleeping time,amytal sleeping time; 1 mg/Kg i.p.,46.5 min
same,average sleeping time,amytal sleeping time; 2 mg/Kg i.p.,49.4 min
same,average sleeping time,amytal sleeping time; 5 mg/Kg i.p.,64.9 min
same,ratio of number of dead animals to number of starting animals,amphetamine deaths; 2 mg/Kg i.p.,9/10
same,ratio of number of dead animals to number of starting animals,amphetamine deaths; 5 mg/Kg i.p.,9/10
same,ratio of number of dead animals to number of starting animals,amphetamine deaths; 10 mg/Kg i.p.,7/10
same,ratio of number of dead animals to number of starting animals,amphetamine deaths; 20 mg/Kg i.p.,1/10
same,"Dose of pentamethylenetetrazol, Clonic Crisis",[1]; 0.5 mg/Kg i.p.,49.1 mg/kg
same,"Dose of pentamethylenetetrazol, Myoclonia",[1]; 0.5 mg/Kg i.p.,44.2 mg/kg
same,"Dose of pentamethylenetetrazol, Tonic Crisis",[1]; 0.5 mg/Kg i.p.,140.7 mg/kg
same,"Dose of pentamethylenetetrazol, Clonic Crisis",[1]; 1 mg/Kg i.p.,46.7 mg/kg
same,"Dose of pentamethylenetetrazol, Myoclonia",[1]; 1 mg/Kg i.p.,41.9 mg/kg
same,"Dose of pentamethylenetetrazol, Tonic Crisis",[1]; 1 mg/Kg i.p.,146.4 mg/kg
same,"Dose of pentamethylenetetrazol, Clonic Crisis",[1]; 2 mg/Kg i.p.,46.2 mg/kg
same,"Dose of pentamethylenetetrazol, Myoclonia",[1]; 2 mg/Kg i.p.,41.2 mg/kg
same,"Dose of pentamethylenetetrazol, Tonic Crisis",[1]; 2 mg/Kg i.p.,168.5 mg/kg
same,"Dose of pentamethylenetetrazol, Clonic Crisis",[1]; 5 mg/Kg i.p.,49.0 mg/kg
same,"Dose of pentamethylenetetrazol, Myoclonia",[1]; 5 mg/Kg i.p.,43.9 mg/kg
same,"Dose of pentamethylenetetrazol, Tonic Crisis",[1]; 5 mg/Kg i.p.,221.7 mg/kg
"c1ccc(CN2C3Cc4ccccc4C2c2ccccc23)cc1 (stereo not drawn) [Example 23, 12-benzyl-10,11-dihydro-5,10-imino-[5H]-dibenzo (a,d) cycloheptene dl]",LD50 at 168 h,Acute toxicity,> 400 mg/kg
"CCCN1C2Cc3ccccc3C1c1ccccc12 (stereo not drawn) [Example 24, 12-n-propyl-10,11-dihydro-5,10-imino[5H]-dibenzo (a,d) cycloheptene dl]",average sleeping time,amytal sleeping time; 2 mg/Kg i.p.,38.6 min
same,average sleeping time,amytal sleeping time; 5 mg/Kg i.p.,42.2 min
same,average sleeping time,amytal sleeping time; 10 mg/Kg i.p.,65.1 min
same,average sleeping time,amytal sleeping time; 20 mg/Kg i.p.,103.7 min
same,ratio of number of dead animals to number of starting animals,amphetamine deaths; 5 mg/Kg i.p.,10/10
same,ratio of number of dead animals to number of starting animals,amphetamine deaths; 10 mg/Kg i.p.,9/10
same,ratio of number of dead animals to number of starting animals,amphetamine deaths; 20 mg/Kg i.p.,3/10
same,LD50 at 168 h,Acute toxicity,~250 mg/kg
same,"Dose of pentamethylenetetrazol, Clonic Crisis",[1]; 1 mg/Kg i.p.,61.8 mg/kg
same,"Dose of pentamethylenetetrazol, Myoclonia",[1]; 1 mg/Kg i.p.,54.2 mg/kg
same,"Dose of pentamethylenetetrazol, Tonic Crisis",[1]; 1 mg/Kg i.p.,170.3 mg/kg
same,"Dose of pentamethylenetetrazol, Clonic Crisis",[1]; 2 mg/Kg i.p.,57.3 mg/kg
same,"Dose of pentamethylenetetrazol, Myoclonia",[1]; 2 mg/Kg i.p.,50.4 mg/kg
same,"Dose of pentamethylenetetrazol, Tonic Crisis",[1]; 2 mg/Kg i.p.,225.8 mg/kg
same,"Dose of pentamethylenetetrazol, Clonic Crisis",[1]; 5 mg/Kg i.p.,60.0 mg/kg
same,"Dose of pentamethylenetetrazol, Myoclonia",[1]; 5 mg/Kg i.p.,51.4 mg/kg
same,"Dose of pentamethylenetetrazol, Tonic Crisis",[1]; 5 mg/Kg i.p.,265.2 mg/kg
same,"Dose of pentamethylenetetrazol, Clonic Crisis",[1]; 10 mg/Kg i.p.,78.4 mg/kg
same,"Dose of pentamethylenetetrazol, Myoclonia",[1]; 10 mg/Kg i.p.,57.7 mg/kg
same,"Dose of pentamethylenetetrazol, Tonic Crisis",[1]; 10 mg/Kg i.p.,275.9 mg/kg
"CNCC(=O)N1C2Cc3ccccc3C1c1ccccc12 (stereo not drawn) [Example 25, 12-(methylaminoacetyl)-10,11-dihydro-5,10-imino-[5H]-dibenzo (a,d) cycloheptene dl]",LD50 at 168 h,Acute toxicity,~300 mg/kg
